How the values were obtained:
[1] = target: [MCL-1]-[compound of formula (I)]-[CRBN/DDB1] complex (Homo sapiens, UniProt Q07820+Q96SW2); assay: AlphaLISA dose response ternary complex formation assay; type: binding; details: read-out: AlphaLISA dose response Average pEC50 by molecule (converted)
Method in brief: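 EC50 comes from dose–response of AlphaLISA luminescence (excitation 680, emission 615 nm), normalised between DMSO background and an internal positive control, with concentrations past the hook point dropped. Ternary complex formed by mixing bead-bound biotin-hMCL-1 and His-CRBN/DDB1 (protein solutions 40 and 200 nM) with compound in 2% DMSO, 30 min, 25 °C.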

ARH-77 cells = assay: Cell viability assay (CellTiter-Glo), ARH-77; type: cell-based; details: Homo sapiens, ARH-77, 24 hours incubation, 1% FBS, read-out: Average pIC50 by molecule ARH-77 (converted)
Description: The effect of various compounds of the invention on the viability of OPM-2, MV-4-11 and ARH-77 cell lines was investigated, using the CTG protocol described below.
OPM-2 and MV-4-11 cell lines are derived from multiple myeloma and acute myeloid leukaemia, respectively. Both cell lines are described in the literature as MCL-1 dependent lines, as opposed to lymphoblast-like ARH-77 cell line, which is described as independent of MCL-1 (Tron A E et al. Nat Commun. 2018; 9: 5341; Caenepeel S et al. Cancer Discov. 2018 December; 8(12):1582-1597).
Cells (OPM-2, MV-4-11 or ARH-77) were seeded on […] in a growth medium with FBS reduced to 1%. Next, compound stocks were pre-diluted in DMSO and added directly to the cells growth medium (final DMSO concentration: 0.5%). Compound concentrations used in this assay: 1/3 dilutions starting at 30 uM (9 to 12 points).
After 24 hours of incubation, cell viability was evaluated using CellTiter-Glo Luminescent Cell Viability Assay (Promega, cat #G7572). Luminescence signal was measured using a CLARIOstar Plus Multi-Mode Microplate Reader (574-590 nm).
Results were normalized to DMSO control.

MV-4-11 cells = assay: Cell viability assay (CellTiter-Glo), MV-4-11; type: cell-based; details: Homo sapiens, MV4-11, 24 hours incubation, 1% FBS, read-out: Average pIC50 by molecule MV-4-11 (converted)
Method in brief: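 Luminescent ATP readout (CellTiter-Glo) at 24 hours measured viability, expressed relative to DMSO-treated wells. Compound was added directly to the medium as a 9–12-point threefold series starting at 30 uM, at 0.5% final DMSO. The medium contained FBS reduced to 1%.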

Sequence of [MCL-1]-[compound of formula (I)]-[CRBN/DDB1] complex (Q07820 whole entry): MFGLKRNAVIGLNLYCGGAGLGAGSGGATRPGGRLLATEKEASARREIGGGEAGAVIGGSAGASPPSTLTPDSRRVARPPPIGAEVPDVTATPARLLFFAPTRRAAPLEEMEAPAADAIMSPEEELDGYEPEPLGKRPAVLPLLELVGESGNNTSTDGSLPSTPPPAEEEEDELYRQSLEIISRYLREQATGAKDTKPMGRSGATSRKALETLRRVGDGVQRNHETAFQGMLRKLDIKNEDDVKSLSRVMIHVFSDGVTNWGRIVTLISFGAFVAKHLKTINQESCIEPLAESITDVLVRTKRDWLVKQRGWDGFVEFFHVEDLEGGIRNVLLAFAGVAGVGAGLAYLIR
Sequence of [MCL-1]-[compound of formula (I)]-[CRBN/DDB1] complex (Q96SW2 whole entry): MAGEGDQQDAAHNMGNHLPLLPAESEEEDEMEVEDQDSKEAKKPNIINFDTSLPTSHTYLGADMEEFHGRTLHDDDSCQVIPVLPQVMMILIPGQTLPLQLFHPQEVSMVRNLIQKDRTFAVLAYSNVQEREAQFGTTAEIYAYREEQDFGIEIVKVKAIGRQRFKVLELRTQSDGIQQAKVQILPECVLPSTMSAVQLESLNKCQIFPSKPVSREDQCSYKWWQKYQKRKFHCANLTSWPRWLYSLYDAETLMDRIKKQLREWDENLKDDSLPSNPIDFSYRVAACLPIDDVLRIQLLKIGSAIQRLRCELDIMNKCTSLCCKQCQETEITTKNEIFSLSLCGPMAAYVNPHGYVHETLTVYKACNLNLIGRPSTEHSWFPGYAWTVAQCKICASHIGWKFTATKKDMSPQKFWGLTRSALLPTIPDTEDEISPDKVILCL
Sequence of [MCL-1]-[compound of formula (I)]-[CRBN/DDB1] complex (Q16531 whole entry partner): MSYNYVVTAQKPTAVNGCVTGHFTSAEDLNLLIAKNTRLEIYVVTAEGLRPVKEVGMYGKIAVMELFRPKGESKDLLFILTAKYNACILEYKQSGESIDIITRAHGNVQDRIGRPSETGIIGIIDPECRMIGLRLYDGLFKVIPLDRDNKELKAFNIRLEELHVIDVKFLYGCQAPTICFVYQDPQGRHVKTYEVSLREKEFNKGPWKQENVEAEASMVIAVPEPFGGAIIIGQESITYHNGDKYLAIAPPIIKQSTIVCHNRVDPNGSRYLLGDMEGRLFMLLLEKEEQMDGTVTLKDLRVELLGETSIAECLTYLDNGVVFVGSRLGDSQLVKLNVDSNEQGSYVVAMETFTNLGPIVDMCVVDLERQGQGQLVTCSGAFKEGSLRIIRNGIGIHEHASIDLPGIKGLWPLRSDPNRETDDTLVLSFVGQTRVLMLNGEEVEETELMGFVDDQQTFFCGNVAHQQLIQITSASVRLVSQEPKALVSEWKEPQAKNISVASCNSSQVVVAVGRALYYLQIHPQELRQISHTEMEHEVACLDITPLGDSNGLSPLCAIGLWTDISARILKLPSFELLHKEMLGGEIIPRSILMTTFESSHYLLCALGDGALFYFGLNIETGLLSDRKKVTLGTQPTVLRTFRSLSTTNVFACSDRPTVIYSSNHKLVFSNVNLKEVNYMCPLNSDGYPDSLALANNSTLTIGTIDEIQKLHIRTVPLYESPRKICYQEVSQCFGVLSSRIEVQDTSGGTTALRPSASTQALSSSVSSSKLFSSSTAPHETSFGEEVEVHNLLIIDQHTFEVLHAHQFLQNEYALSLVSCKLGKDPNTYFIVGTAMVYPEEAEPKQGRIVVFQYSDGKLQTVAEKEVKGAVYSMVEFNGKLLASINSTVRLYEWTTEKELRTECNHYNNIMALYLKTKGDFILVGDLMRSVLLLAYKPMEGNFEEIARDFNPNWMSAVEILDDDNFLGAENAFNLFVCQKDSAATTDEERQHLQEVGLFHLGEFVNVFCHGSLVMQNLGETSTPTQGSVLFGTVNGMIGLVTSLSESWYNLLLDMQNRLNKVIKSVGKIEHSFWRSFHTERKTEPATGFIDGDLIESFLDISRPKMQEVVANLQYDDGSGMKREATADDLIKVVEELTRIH

EC50 [1] [nM] | IC50 (MV-4-11 cells) [nM] | SMILES | IC50 (ARH-77 cells) [nM]
< 100 | ≤ 31.6 | Cc1nn(C)c(C)c1-c1c(Cl)ccc2c(CCCOc3cccc4cc(F)ccc34)c(C(=O)O)n(CCN3CCN(C(=O)[C@@H](C)Oc4cccc5c4C(=O)N(C4CCC(=O)NC4=O)C5=O)CC3)c12 (stereo partly drawn) [Compound 315, 6-Chloro-1-(2-{4-[(2R)-2-{[2-(2,6-dioxopiperidin-3-yl)-1,3-dioxo-2,3-dihydro-1H-isoindol-4-yl]oxy}propanoyl]piperazin-1-yl}ethyl)-3-{3-[(6-fluoronaphthalen-1-yl)oxy]propyl}-7-(1,3,5-trimethyl-1H-pyrazol-4-yl)-1H-indole-2-carboxylic acid] | > 3160
< 100 | ≤ 100 | Cc1nn(C)c(C)c1-c1c(Cl)ccc2c(CCCOc3cccc4cc(F)ccc34)c(C(=O)O)n(CCN3CCN(C(=O)COc4c(Cl)ccc5c4CN(C4CCC(=O)NC4=O)C5=O)CC3)c12 (stereo not drawn) [Compound 345, 6-Chloro-1-{2-[4-(2-{[5-chloro-2-(2,6-dioxopiperidin-3-yl)-1-oxo-2,3-dihydro-1H-isoindol-4-yl]oxy}acetyl)piperazin-1-yl]ethyl}-3-{3-[(6-fluoronaphthalen-1-yl)oxy]propyl}-7-(1,3,5-trimethyl-1H-pyrazol-4-yl)-1H-indole-2-carboxylic acid] | > 10000
< 100 | ≤ 100 | Cc1nn(C)c(C)c1-c1c(Cl)ccc2c(CCCOc3cccc4cc(F)ccc34)c(C(=O)O)n(CCN3CCN(C(=O)Cn4c(C)nc5c(C(=O)NC6CCC(=O)NC6=O)ccc(Cl)c54)CC3)c12 (stereo not drawn) [Compound 271, 6-Chloro-1-(2-(4-(2-(7-chloro-4-((2,6-dioxopiperidin-3-yl)carbamoyl)-2-methyl-1H-benzo[d]imidazol-1-yl)acetyl)piperazin-1-yl)ethyl)-3-(3-((6-fluoronaphthalen-1-yl)oxy)propyl)-7-(1,3,5-trimethyl-1H-pyrazol-4-yl)-1H-indole-2-carboxylic acid] | > 10000
< 100 | ≤ 316 | Cc1nn2c(c1-c1c(F)ccc3c(CCCOc4cccc5cc(F)ccc45)c(C(=O)O)n(CCN4CCN(C(=O)COc5cccc6c5CN(C5CCC(=O)NC5=O)C6=O)CC4)c13)CCC2 (stereo not drawn) [Compound 225, 1-(2-(4-(2-((2-(2,6-dioxopiperidin-3-yl)-1-oxoisoindolin-4-yl)oxy)acetyl)piperazin-1-yl)ethyl)-6-fluoro-3-(3-((6-fluoronaphthalen-1-yl)oxy)propyl)-7-(2-methyl-5,6-dihydro-4H-pyrrolo[1,2-b]pyrazol-3-yl)-1H-indole-2-carboxylic acid] | > 10000
< 100 | ≤ 100 | Cc1nc2c(NCC(=O)N3CCN(CCn4c(C(=O)O)c(CCCOc5cccc6cc(F)ccc56)c5ccc(Cl)c(-c6c(C)nn(C)c6C)c54)CC3)cccc2cc1C1CCC(=O)NC1=O (stereo not drawn) [Compound 284, 6-Chloro-1-{2-[4-(2-{[3-(2,6-dioxopiperidin-3-yl)-2-methylquinolin-8-yl]amino}acetyl)piperazin-1-yl]ethyl}-3-{3-[(6-fluoronaphthalen-1-yl)oxy]propyl}-7-(1,3,5-trimethyl-1H-pyrazol-4-yl)-1H-indole-2-carboxylic acid] | > 3160

More lines, now with the values behind:

SMILES | EC50 [1] [nM] | IC50 (MV-4-11 cells) [nM] | IC50 (ARH-77 cells) [nM]
Cc1nn2c(c1-c1c(F)ccc3c(CCCOc4cccc5cc(F)ccc45)c(C(=O)O)n(CCN4CCN(C(=O)COc5cccc6c5CN(C5CCC(=O)NC5=O)C6=O)CC4)c13)OCC2 (stereo not drawn) [Compound 351, 1-{2-[4-(2-{[2-(2,6-dioxopiperidin-3-yl)-1-oxo-2,3-dihydro-1H-isoindol-4-yl]oxy}acetyl)piperazin-1-yl]ethyl}-6-fluoro-3-{3-[(6-fluoronaphthalen-1-yl)oxy]propyl}-7-{6-methyl-2H,3H-pyrazolo[3,2-b][1,3]oxazol-7-yl}-1H-indole-2-carboxylic acid] | < 10 | ≤ 316 | > 31600
Cc1nn2c(c1-c1c(F)ccc3c(CCCOc4cccc5cc(F)ccc45)c(C(=O)O)n(CCN4CCN(C(=O)COc5cccc6c5CN(C5CCC(=O)NC5=O)C6=O)CC4)c13)COCC2 (stereo not drawn) [Compound 226, 1-{2-[4-(2-{[2-(2,6-dioxopiperidin-3-yl)-1-oxo-2,3-dihydro-1H-isoindol-4-yl]oxy}acetyl)piperazin-1-yl]ethyl}-6-fluoro-3-{3-[(6-fluoronaphthalen-1-yl)oxy]propyl}-7-{2-methyl-4H,6H,7H-pyrazolo[3,2-c][1,4]oxazin-3-yl}-1H-indole-2-carboxylic acid] | < 100 | ≤ 100 | > 10000
Cc1nn(C)c(C)c1-c1c(Cl)ccc2c(CCCOc3cccc4cc(F)ccc34)c(C(=O)O)n(CCCCNC(=O)CNc3cccc4c3C(=O)N(C3CCC(=O)NC3=O)C4=O)c12 (stereo not drawn) [Compound 325, 6-Chloro-1-[4-(2-{[2-(2,6-dioxopiperidin-3-yl)-1,3-dioxo-2,3-dihydro-1H-isoindol-4-yl]amino}acetamido)butyl]-3-{3-[(6-fluoronaphthalen-1-yl)oxy]propyl}-7-(1,3,5-trimethyl-1H-pyrazol-4-yl)-1H-indole-2-carboxylic acid] | < 10 | ≤ 100 | > 10000
Cc1nn(C)c(C)c1-c1c(Cl)ccc2c(CCCOc3cccc4cc(F)ccc34)c(C(=O)O)n(CCCOCCOc3cccc4c3CN(C3CCC(=O)NC3=O)C4=O)c12 (stereo not drawn) [Compound 329, 6-Chloro-1-[3-(2-{[2-(2,6-dioxopiperidin-3-yl)-1-oxo-2,3-dihydro-1H-isoindol-4-yl]oxy}ethoxy)propyl]-3-{3-[(6-fluoronaphthalen-1-yl)oxy]propyl}-7-(1,3,5-trimethyl-1H-pyrazol-4-yl)-1H-indole-2-carboxylic acid] | < 100 | ≤ 316 | > 10000
Cc1nn(C)c(C)c1-c1c(Cl)ccc2c(CCCOc3cccc4cc(F)ccc34)c(C(=O)O)n(CCN3CCN(C(=O)[C@@H](C)Oc4cccc5c4C(=O)N([C@@H]4CCC(=O)NC4=O)C5=O)CC3)c12 (single isomer, unassigned) [Compound 316] | < 1000 | ≤ 100 | > 3160
Cc1nn(C)c(C)c1-c1c(Cl)ccc2c(CCCOc3cccc4cc(F)ccc34)c(C(=O)O)n(CCN3CCN(C(=O)COc4cccc5c4CN([C@H]4CCC(=O)NC4=O)C5=O)CC3)c12 (single isomer, unassigned) [Compound 296] | < 100 | ≤ 31.6 | > 10000
Cc1nn(C)c(C)c1-c1c(Cl)ccc2c(CCCOc3cccc4ccccc34)c(C(=O)O)n(CCC3CCN(C(=O)COc4cccc5c4CN(C4CCC(=O)NC4=O)C5=O)CC3)c12 (stereo not drawn) [Compound 223, 6-chloro-1-{2-[1-(2-{[2-(2,6-dioxopiperidin-3-yl)-1-oxo-2,3-dihydro-1H-isoindol-4-yl]oxy}acetyl)piperidin-4-yl]ethyl}-3-[3-(naphthalen-1-yloxy)propyl]-7-(1,3,5-trimethyl-1H-pyrazol-4-yl)-1H-indole-2-carboxylic acid] | < 100 | ≤ 316 | > 10000
Cc1nn(C)c(C)c1-c1c(Cl)ccc2c(CCCOc3cccc4ccccc34)c(C(=O)O)n(CCN3CCN(C(=O)COc4cccc5c4CN(C4CCC(=O)NC4=O)C5=O)C4CC43)c12 (stereo not drawn) [Compound 222, 6-chloro-1-{2-[5-(2-{[2-(2,6-dioxopiperidin-3-yl)-1-oxo-2,3-dihydro-1H-isoindol-4-yl]oxy}acetyl)-2,5-diazabicyclo[4.1.0]heptan-2-yl]ethyl}-3-[3-(naphthalen-1-yloxy)propyl]-7-(1,3,5-trimethyl-1H-pyrazol-4-yl)-1H-indole-2-carboxylic acid] | < 100 | ≤ 316 | > 10000

From patent US20240294499A1, “TARGETED PROTEIN DEGRADATION USING BIFUNCTIONAL COMPOUNDS THAT BIND UBIQUITIN LIGASE AND TARGET MCL-1 PROTEIN” (Captor Therapeutics S.A., priority 2021, published 2024)
